Key:
[1] = system: primary human total T-cells; assay: Primary human total T-cell activation: CD25 surface staining, Biological Example 13; assay type: cell-based; conditions: 48 hours, fold change over baseline; for fold induction at 1 µM: inhibitor 1 μM
Cbl-b [2] = biological target: T1, Cbl-b (Homo sapiens (Human), UniProt Q13191); assay: Cbl-b displacement assay (Cbl-b inhibition assay), Biological Example 12; assay type: binding; conditions: 0.125 nM Cbl-b final concentration (Low); Table 12-1; read-out: Cbl-b IC50 (Low)
T1 sequence (Q13191 36-427): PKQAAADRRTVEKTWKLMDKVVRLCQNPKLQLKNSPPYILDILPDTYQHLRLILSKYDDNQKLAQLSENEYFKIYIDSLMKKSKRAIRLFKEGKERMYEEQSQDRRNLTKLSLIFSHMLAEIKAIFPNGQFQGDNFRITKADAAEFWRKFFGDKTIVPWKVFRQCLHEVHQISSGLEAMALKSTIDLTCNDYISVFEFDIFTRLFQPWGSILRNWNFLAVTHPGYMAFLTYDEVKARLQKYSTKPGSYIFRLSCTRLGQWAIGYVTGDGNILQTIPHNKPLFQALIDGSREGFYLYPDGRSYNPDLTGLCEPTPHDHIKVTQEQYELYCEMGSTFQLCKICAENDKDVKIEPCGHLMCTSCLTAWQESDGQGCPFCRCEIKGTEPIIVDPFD
How it was run: (§1)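 Biotinylated Avitag-Cbl-b (residues 36-427) at 0.5 nM ("High") or 0.125 nM ("Low") final was preincubated 1 h at room temperature with compound (1% DMSO) in 20 mM HEPES pH 7.5, 150 mM NaCl, 0.01% Triton X-100, 0.01% BSA, 0.5 mM TCEP. Then 150 nM BODIPY FL inhibitor probe (~EC40) plus 2 nM streptavidin-terbium, 1 h; TR-FRET 520/620 read, IC50 derived.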

[3] = system: primary human total T-cells; assay: Primary human total T-cell activation: CD25 surface staining, Biological Example 9; assay type: cell-based; conditions: 48 hours, fold change over baseline; for fold induction at 1 µM: inhibitor 1 μM
[4] = system: primary human total T-cells; assay: Primary human total T-cell activation: IL-2 secretion, Biological Example 9; assay type: cell-based; conditions: 48 hours, fold change over baseline; for fold induction at 1 µM: inhibitor 1 μM
Cbl-b [5] = biological target: T1, Cbl-b; assay: Cbl-b displacement assay (Cbl-b inhibition assay), Biological Example 8; assay type: binding; conditions: 0.125 nM Cbl-b final concentration (Low); Table 8-1; read-out: Cbl-b IC50 (Low)
How it was run: as §1

[6] = system: primary human total T-cells; assay: Primary human total T-cell activation: IL-2 secretion, Biological Example 13; assay type: cell-based; conditions: 48 hours, fold change over baseline; for fold induction at 1 µM: inhibitor 1 μM
TC-1 cell tumor = assay: Cbl-b inhibitor in combination with HPV16 E7 cancer vaccine in mice bearing syngeneic TC-1 tumor, Biological Example 11; assay type: in vivo, C57BL/6 mice; conditions: HPV16 E7 vaccine SC + Compound No. 53 180 mg/kg PO BID; TILs on day 10; percent increase relative to vaccine without Cbl-b inhibitor
Method: In brief, the combination therapy was tested in C57BL/6 mice bearing a syngeneic TC-1 cell tumor. TC-1 cells were derived from primary murine lung cells, which had been transfected with human papillomavirus strain 16 (HPV16) early proteins 6 and 7 (E6 and E7) and an activated human c-Ha-ras oncogene (Lin et al., Cancer Research, 56: 21-26, 1996). Either 2.5×10^4 (first study) or 5.0×10^4 (second study) TC-1 cells (obtained from Johns Hopkins University) were injected subcutaneously into the mid flank of each mouse. Tumors were allowed to grow to 50-100 mm^3 at which time the animals were randomized and treatment was begun (day 0).
The HPV16 E7 cancer vaccine (Shrimali et al., Cancer Immunol Res, 5: 755-766, 2017) included 100 μg of a synthetic peptide with the amino acid sequence of a CTL epitope of residues 49-57 of E7 ([…] set forth as SEQ ID NO:2), mixed with 20 μg of a synthetic peptide with the amino acid sequence of a Th epitope known as PADRE (aK-Cha-[…]a set for as SEQ ID NO:3, where “a” is D alanine and “Cha” is L-cyclohexylalanine) and 20 μg of a Quil-A® adjuvant marketed by Brenntag Biosector A/S, which contains purified quillaja saponins. The HPV16 E7 vaccine or Dulbecco's phosphate-buffered saline (DPBS) was administered subcutaneously (SC) on days 2 and 9 (=day 16 and day 23 post TC-1 injection). The Cbl-b inhibitor was dissolved in a suitable formulation and administered at a suitable dose level and frequency as informed by prior pharmacokinetic and tolerability studies. In initial studies, the Cbl-b inhibitor (Compound No. 53) in a suitable vehicle, or the vehicle, was administered orally (PO) at a dose of 180 mg/kg twice per day (BID) beginning on day 0 (=day 14 post TC-1 injection). In further studies, a Cbl-b inhibitor formulation was administered orally (PO) or parenterally (e.g., IV, IP, SC, or intratumorally at one to three injection sites per tumor). In addition to the test group of mice who received the combination therapy (the Cbl-b inhibitor formulation plus the HPV16 E7 vaccine), the study included control groups of mice who received: the vehicle formulation plus DPBS, the Cbl-b inhibitor formulation plus DPBS, or the vehicle formulation plus the HPV16 E7 vaccine.
Tumor size was recorded twice a week starting on day 0 (day 14 post TC-1 injection) and continued through duration of dosing until humane endpoints were reached between day 33 and day 42 (=between day 47 and day 56 post TC-1 injection). The level of response was evaluated by comparing tumor growth in the test mice versus the control mice (10 mice per group). In addition, the level of immune activation was assessed by collecting tumors for analysis of tumor infiltrating lymphocytes (TILs) on day 10 (=day 24 post TC-1 injection) in test and control mice (6 mice per group). TILs were processed for flow cytometric analysis using standard methods to determine antigen specificity, expression of cell type-specific markers, and expression of activation markers such as granzyme B, CD25, CD69, PD-1, and LAG3. In further experiments, PBMCs and/or splenocytes were also collected and processed. Augmentation of the anti-tumor immune response by the combination therapy was assessed by comparing the relative percentage of total or E7-specific (tumor antigen-specific) CD8+ T cells, and the relative levels of expression of activation markers on immune cells in mice of the test and study groups.

[7] = anti-CD3/anti-CD28 co-stimulation, inhibitor 0.3 μM, Table 13-1
[8] = anti-CD3 alone, inhibitor 3 μM, Table 13-1
[9] = anti-CD3/anti-CD28 co-stimulation, inhibitor 0.3 μM, Table 9-1
[10] = anti-CD3 alone, inhibitor 3 μM, Table 9-1

How did the fold induction at 0.3 µM [1, 7] turn out when `Cc1cc(C(=O)Nc2cccc(C3(Cc4nncn4C)COC3)c2)nc(C2CC2)n1` [Compound 53] was run?
Its fold induction at 0.3 µM is over 1.39.

And the fold induction at 1 µM ([1]; anti-CD3/anti-CD28 co-stimulation, Table 13-1, read-out: CD25 staining CD3/CD28 1 μM)?
Its fold induction at 1 µM is over 1.39.

What about the fold induction at 1 µM ([1]; anti-CD3 alone, Table 13-1, read-out: CD25 staining CD3 1 μM) of the same compound?
The fold induction at 1 µM was over 1.14.

And the fold induction at 3 µM [1, 8]?
Its fold induction at 3 µM is over 1.14.

And the IC50 (Cbl-b [2])?
Its IC50 is over 5 nM.

And the fold induction at 0.3 µM [3, 9]?
The fold induction at 0.3 µM was over 1.39.

What about the fold induction at 1 µM ([3]; anti-CD3/anti-CD28 co-stimulation, Table 9-1, read-out: CD25 staining CD3/CD28 1 μM) of the same compound?
The fold induction at 1 µM was over 1.39.

What about the fold induction at 1 µM ([3]; anti-CD3 alone, Table 9-1, read-out: CD25 staining CD3 1 μM) of the same compound?
The fold induction at 1 µM was over 1.14.

And the fold induction at 3 µM [3, 10]?
The fold induction at 3 µM was over 1.14.

What about the fold induction at 0.3 µM [4, 9] of the same compound?
The fold induction at 0.3 µM was under 10.

And the fold induction at 1 µM ([4]; anti-CD3/anti-CD28 co-stimulation, Table 9-1, read-out: IL-2 secretion CD3/CD28 1 μM)?
The fold induction at 1 µM was 10 to 15.

And the fold induction at 1 µM ([4]; anti-CD3 alone, Table 9-1, read-out: IL-2 secretion CD3 1 μM)?
Its fold induction at 1 µM is 0.34 to 0.66.

And the fold induction at 3 µM [4, 10]?
Its fold induction at 3 µM is 0.34 to 0.66.

And the IC50 (Cbl-b [5])?
The IC50 was over 5 nM.

And the fold induction at 0.3 µM [6, 7]?
Its fold induction at 0.3 µM is under 10.

What about the fold induction at 1 µM ([6]; anti-CD3/anti-CD28 co-stimulation, Table 13-1, read-out: IL-2 secretion CD3/CD28 1 μM) of the same compound?
The fold induction at 1 µM was 11 to 15.

And the fold induction at 1 µM ([6]; anti-CD3 alone, Table 13-1, read-out: IL-2 secretion CD3 1 μM)?
Its fold induction at 1 µM is 0.34 to 0.66.

What about the fold induction at 3 µM [6, 8] of the same compound?
Its fold induction at 3 µM is 0.34 to 0.66.

And the “Mean increase in CD8+ T cells in TILs: % E7 positive T cells” value (TC-1 cell tumor)?
The value was 33.7%.

What about the “Mean increase in CD8+ T cells in TILs: % Granzyme positive (E7+ T cells)” value (TC-1 cell tumor) of the same compound?
Its value is 7.86%.

What about the “Mean increase in CD8+ T cells in TILs: % Granzyme positive (E7− T cells)” value (TC-1 cell tumor) of the same compound?
Its value is 4.12%.

And the “Mean increase in CD8+ T cells in TILs: % LAG3 positive (E7+ T cells)” value (TC-1 cell tumor)?
The value was 13.49%.

And the “Mean increase in CD8+ T cells in TILs: % LAG3 positive (E7− cells)” value (TC-1 cell tumor)?
The value was 0.96%.

And the “Mean increase in CD8+ T cells in TILs: % PD1 positive (E7+ T cells)” value (TC-1 cell tumor)?
Its value is 14.97%.

And the “Mean increase in CD8+ T cells in TILs: % PD1 positive (E7− T cells)” value (TC-1 cell tumor)?
The value was 20.23%.
